According to patent US10774051B2, “6-membered heterocyclic derivatives and pharmaceutical composition comprising the same” (Shionogi & Co., Ltd., priority 2015, dated 2020):

What follows are compounds tested against human P2X7 receptor (Homo sapiens, UniProt Q99572, R270H/Y155H) (assay: Evaluation of human P2X7 receptor inhibitory activity (Yo-Pro uptake, BzATP stimulation, FLIPR TETRA)). Conditions: 1321N1 cells stably expressing human P2X7 receptor; BzATP stimulation, Yo-Pro uptake; read-out: IC50 (antagonistic activity for the human P2X7 receptor).
Format: cell-based
Summary of the method: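 1321N1 cells stably expressing human P2X7 (T606C/G952A SNP variant), in HBSS buffer pH 7.4-7.5 with Yo-Pro, stimulated with BzATP; compound added 8 min after agonist. Fluorescence followed for 20 min on FLIPR; max-minus-min change gave % inhibition, IC50 by logistic fit.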

Row | SMILES | IC50
1 | COc1cn(Cc2ccccc2)c(Nc2cc3[nH]ccc3cc2C)nc1=O [Compound I-0618] | 7 nM
2 | COc1cn(Cc2ccc(F)c(Cl)c2)c(Nc2cc3ncccc3cc2C)nc1=O [Compound I-0771] | 43 nM
3 | CCc1cc2c(cc1Nc1nc(=O)c(F)cn1Cc1ccc(F)cc1)CCC2 [Compound I-0186] | 2 nM
4 | COc1cn(Cc2ccc(F)c(Cl)c2)c(Nc2cc3c(cc2C)OCC=C3)nc1=O [Compound I-0912] | 22 nM
5 | COc1cc(C)cc(Nc2nc(=O)c(OC)cn2Cc2cccc(F)c2)c1C [Compound I-0405] | 2 nM
6 | COc1cn(Cc2cc(F)c(F)c(F)c2)c(Nc2ccc3[nH]ccc3c2C)nc1=O [Compound I-0939] | 4 nM
7 | Cc1c(Cl)cccc1Nc1cc(=O)n(C)c(=O)n1Cc1ccccc1 [Compound I-0990] | 320 nM
8 | COc1cn(Cc2ccccc2)c(Nc2ccc3nc(C)sc3c2C)nc1=O [Compound I-0858] | 10 nM

Same assay, conditions: 1321N1 cells stably expressing human P2X7 receptor; BzATP stimulation, Yo-Pro uptake; read-out: IC50 (antagonistic activity for the human P2X7 receptor), class symbol

Row | SMILES | IC50
9 | CCc1ccc(OC)cc1Nc1nc(=O)c(OC)cn1Cc1cccc(Cl)c1 [Compound I-0254] | 10 to 100 nM
10 | CCc1ccccc1Nc1nc(=O)c(OC)cn1Cc1cc(F)c(F)c(F)c1 [Compound I-0568] | 10 to 100 nM
11 | Cc1ccc(N2CCCS2(=O)=O)cc1Nc1nc(=O)c(Cl)cn1Cc1ccccc1 [Compound I-0313] | 10 to 100 nM
12 | COc1cn(Cc2ccc(F)c(Cl)c2)c(Nc2cc(N3CCCC3=O)ccc2C)nc1=O [Compound I-0399] | < 10 nM
13 | COc1cn(Cc2cc(F)cc(Cl)c2)c(Nc2cccc(Cl)c2C)nc1=O [Compound I-0285] | 10 to 100 nM
14 | COc1cn(Cc2ccccc2)c(Nc2ccc(Cl)cc2Cl)nc1=O [Compound I-0071] | 100 to 500 nM
15 | CCc1c(Nc2nc(=O)c(OC)cn2Cc2ccccc2)cc(OC)cc1OC [Compound I-0361] | < 10 nM
16 | CCc1cccc(Nc2nc(=O)c(OC)cn2Cc2ccccc2)c1CC [Compound I-0136] | < 10 nM
17 | COc1cn(Cc2ccc(F)c(Cl)c2)c(Nc2ccc(C)cc2C)nc1=O [Compound I-0376] | < 10 nM
18 | COc1cc(Nc2nc(=O)c(OC)cn2Cc2cc(F)cc(F)c2)c(C)cc1Cl [Compound I-0510] | < 10 nM
19 | COc1cn(Cc2ccccc2)c(Nc2cc(O)ccc2Cl)nc1=O [Compound I-0156] | 100 to 500 nM
20 | COc1cn(Cc2ccccc2)c(Nc2cc(-c3ncco3)ccc2C)nc1=O [Compound I-0558] | 10 to 100 nM
21 | Cc1c(Cl)cccc1Nc1nc(=O)c(Cl)cn1Cc1ccc(F)c(F)c1 [Compound I-0472] | < 10 nM
22 | COc1cn(Cc2cc(F)c(F)c(F)c2)c(Nc2cc(C)c(Cl)cc2C)nc1=O [Compound I-0575] | < 10 nM
23 | COc1cn(Cc2ccccc2)c(Nc2cccc(C(F)(F)F)c2C)nc1=O [Compound I-0085] | 10 to 100 nM
24 | COc1c(C)cccc1Nc1nc(=O)c(OC)cn1Cc1ccccc1 [Compound I-0130] | 100 to 500 nM
25 | COc1cn(Cc2ccc(F)c(Cl)c2)c(Nc2cc(C)c(C)cc2C)nc1=O [Compound I-0243] | < 10 nM
26 | COc1cn(Cc2ccccc2COC(F)F)c(Nc2cccc(Cl)c2C)nc1=O [Compound I-0422] | 500 to 1000 nM

Row | SMILES | IC50
27 | Cc1cccc(Nc2nc(=O)c(F)cn2Cc2ccc(F)cc2)c1C [Compound I-0139] | < 10 nM
28 | COc1cn(Cc2ccccc2)c(Nc2cc(-n3cccc3)ccc2C)nc1=O [Compound I-0239] | 100 to 500 nM
29 | CCc1ccc(F)cc1Nc1nc(=O)c(OC)cn1Cc1cccc(Cl)c1 [Compound I-0566] | 10 to 100 nM
30 | CCc1cc2c(cc1Nc1nc(=O)c(OC)cn1Cc1ccccc1Cl)CCC2 [Compound I-0194] | 10 to 100 nM
31 | COc1cn(Cc2ccccc2)c(NCc2cccc(C(F)(F)F)c2Cl)nc1=O [Compound I-0035] | 100 to 500 nM
32 | COc1cccc(Nc2nc(=O)c(OC)cn2Cc2cc(F)cc(F)c2)c1C [Compound I-0438] | < 10 nM
33 | COc1cn(Cc2ccc(F)c(Cl)c2)c(Nc2cccc(OC(C)C)c2C)nc1=O [Compound I-0515] | 10 to 100 nM
34 | COc1cc(C)cc(Nc2nc(=O)c(OC)cn2Cc2ccc(F)c(Cl)c2)c1C [Compound I-0449] | < 10 nM
35 | CCc1c(Nc2nc(=O)c(OC)cn2Cc2ccccc2)cccc1OC [Compound I-0212] | < 10 nM
36 | COc1cn(Cc2ccccc2)c(Nc2cccc(C(F)(F)F)c2Cl)nc1=O [Compound I-0036] | 100 to 500 nM
37 | COc1cn(Cc2ccccc2)c(Nc2cc(C)ccc2C)nc1=O [Compound I-0068] | 10 to 100 nM
38 | COc1cn(Cc2cccc(F)c2)c(Nc2cccc(C)c2C)nc1=O [Compound I-0323] | < 10 nM
39 | COc1cn(Cc2ccc(F)c(F)c2)c(Nc2cc(OCC(F)(F)F)ccc2C)nc1=O [Compound I-0495] | 10 to 100 nM
40 | COc1cc(C)c(Nc2nc(=O)c(OC)cn2Cc2ccc(F)c(F)c2)cc1OC [Compound I-0276] | 10 to 100 nM
41 | CCc1c(Cl)cccc1Nc1nc(=O)c(OC)cn1Cc1ccccc1 [Compound I-0215] | < 10 nM
42 | COc1cn(Cc2ccc(F)cc2)c(Nc2cc(C)c(C)cc2C)nc1=O [Compound I-0162] | < 10 nM
43 | COc1cc(Nc2nc(=O)c(OC)cn2Cc2cc(F)cc(Cl)c2)c(C)cc1Cl [Compound I-0537] | < 10 nM

Same assay, conditions: antagonistic activity for the human P2X7 receptor; read-out: IC50

Row | SMILES | IC50
44 | Cc1nc2cc(C)c(Nc3nc(=O)cc(C)n3Cc3cc(F)c(F)c(F)c3)cc2s1 [Compound I-1136] | 10 to 100 nM
45 | Cc1cc(C)c(Nc2nc(=O)c(F)cn2Cc2cc(F)cc(F)c2)cc1CO [Compound I-1111] | < 10 nM
46 | CCOc1cn(Cc2ccc(F)c(Cl)c2)c(Nc2cc(OC)c(OC)cc2CC)nc1=O [Compound I-0909] | 10 to 100 nM
47 | Cc1cc2[nH]ccc2cc1Nc1nc(=O)c(F)cn1Cc1cc(F)cc(F)c1 [Compound I-1044] | < 10 nM
48 | COc1ccc(Nc2nc(=O)c(F)cn2Cc2cc(F)c(F)c(F)c2)c(Cl)c1 [Compound I-1186] | < 10 nM
49 | Cc1c(Nc2nc(=O)ccn2Cc2cc(F)cc(F)c2)ccc2[nH]ccc12 [Compound I-1171] | < 10 nM
50 | COc1cn(Cc2ccc(F)cc2)c(Nc2cc(Oc3ccccn3)ccc2C)nc1=O [Compound I-0898] | 10 to 100 nM
51 | COc1cc(C)c(Nc2nc(=O)c(C#N)cn2Cc2ccc(F)c(F)c2)cc1C [Compound I-1160] | < 10 nM
52 | COc1cc(C)c(Nc2nc(=O)c(Cl)nn2Cc2cc(F)c(F)c(F)c2)cc1OC [Compound I-1264] | < 10 nM
53 | COc1cc(Cl)c(Nc2nc(=O)c(F)cn2Cc2cc(F)c(F)c(F)c2)cc1OC [Compound I-1187] | < 10 nM
54 | COc1cn(Cc2cc(F)c(F)c(F)c2)c(Nc2ccc(Oc3ccnc(F)c3)cc2C)nc1=O [Compound I-0933] | 100 to 500 nM
55 | COc1cn(Cc2ccccc2)c(Nc2cc(-c3cscn3)ccc2C)nc1=O [Compound I-0750] | 10 to 100 nM
56 | COc1cn(Cc2cc(F)cc(Cl)c2)c(Nc2cc(OC(F)F)ccc2C)nc1=O [Compound I-0872] | 10 to 100 nM
57 | COc1cc(C)c(Nc2nc(=O)c(CF)nn2Cc2cc(F)c(F)c(F)c2)cc1OC [Compound I-1248] | 10 to 100 nM
58 | COc1cc(Cl)c(Nc2nc(=O)c(OC)cn2Cc2cc(F)c(F)c(F)c2)cc1OC [Compound I-0848] | < 10 nM
59 | COc1cc(Nc2nc(=O)c(F)cn2Cc2cc(F)cc(F)c2)c(C)cc1Cl [Compound I-1005] | < 10 nM
60 | C=C(C)c1ccc(C)c(Nc2nc(=O)c(OC)cn2Cc2ccccc2)c1 [Compound I-0722] | 10 to 100 nM
61 | Cc1nc2cc(C)c(Nc3nc(=O)c(F)cn3Cc3cc(F)cc(F)c3)cc2s1 [Compound I-1009] | < 10 nM

Row | SMILES | IC50
62 | CCOC(=O)c1cn(Cc2cc(F)c(F)c(F)c2)c(Nc2ccc(OC(F)F)cc2C)nc1=O [Compound I-1121] | 100 to 500 nM
63 | COc1cn(Cc2cc(F)cc(F)c2)c(Nc2ccc3nc(C)sc3c2C)nc1=O [Compound I-0860] | 10 to 100 nM
64 | COc1cc(C)c(Nc2nc(=O)c(OC)cn2Cc2cccc(Cl)c2)cc1Cl [Compound I-0671] | < 10 nM
65 | COc1cc(C)c(Nc2nc(=O)c(OC)cn2Cc2ccc(F)c(Cl)c2)cc1F [Compound I-0719] | < 10 nM
66 | COc1cn(Cc2cc(F)cc(Cl)c2)c(Nc2cccc3c(=O)n(C)ccc23)nc1=O [Compound I-0904] | 10 to 100 nM
67 | COCc1cn(Cc2cc(F)c(F)c(F)c2)c(Nc2ccc(OC(F)F)cc2C)nc1=O [Compound I-1124] | 10 to 100 nM
68 | CCOc1cc(Nc2nc(=O)c(F)cn2Cc2ccc(F)c(Cl)c2)c(C)cc1F [Compound I-1031] | < 10 nM
69 | COc1cc(C)c(Nc2nc(=O)c(CO)nn2Cc2cc(F)c(F)c(F)c2)cc1OC [Compound I-1256] | 10 to 100 nM
70 | CCOc1cn(Cc2ccc(F)c(Cl)c2)c(Nc2cc(C)c(OC)cc2C)nc1=O [Compound I-0714] | < 10 nM
71 | COCc1ccc(C)c(Nc2nc(=O)c(F)cn2Cc2cc(F)c(F)c(F)c2)c1 [Compound I-1086] | < 10 nM
72 | COc1cn(Cc2ccc(F)c(Cl)c2)c(Nc2ccccc2Cc2ccccn2)nc1=O [Compound I-0595] | < 10 nM
73 | CCc1ccc(OC)cc1Nc1nc(=O)c(OC)cn1Cc1cc(F)c(F)c(F)c1 [Compound I-0673] | < 10 nM
74 | CCOc1cc(C)c(Nc2nc(=O)c(F)cn2Cc2ccc(F)c(Cl)c2)cc1F [Compound I-1060] | 10 to 100 nM
75 | Cc1cc(N2CCOCC2)ccc1Nc1nc(=O)ccn1Cc1cc(F)c(F)c(F)c1 [Compound I-1149] | 10 to 100 nM
76 | COc1cc(C)c(Nc2nc(=O)c(OC)cn2Cc2cc(F)c(F)c(F)c2)cc1F [Compound I-0804] | < 10 nM
77 | CCOc1ccc(C)c(Nc2nc(=O)c(F)cn2Cc2ccc(F)c(Cl)c2)c1 [Compound I-0998] | < 10 nM
78 | CCOc1cn(Cc2ccccc2)c(Nc2cc(OC)c(OC)cc2CC)nc1=O [Compound I-0893] | < 10 nM
79 | COc1cn(Cc2cc(F)cc(F)c2)c(Nc2cc3c(cc2C)OC(F)(F)O3)nc1=O [Compound I-0726] | 100 to 500 nM
